Like-named read-outs stand apart in the source and are kept apart here.
Key:
PC3 cells = experiment: PC3 growth inhibition (Cell-titer glo, 72 hours); format: cell-based; settings: Homo sapiens, PC-3, PC3 cells, 72 hours, Cell-titer glo, read-out: Percent Inhibition (PC3 growth inhibition); for inhibition at 1 µM: compound concentration 1 μM; for inhibition at 1.667 µM: compound concentration 1.667 μM
Outline: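 PC3 cells in RPMI1640 seeded overnight at 37 °C, 5% CO2, then exposed to compound diluted in AIM serum-free medium for 72 h. Viability by CellTiter-Glo luminescence vs DMSO controls; single-concentration % remaining viability (1 μM or 1.667 μM), or GI50/LD50 from curves.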

hNAMPT protein = hNAMPT protein (Homo sapiens (Human), UniProt P43490); experiment: NAMPT enzyme assay (TR-FRET/HTRF, BodiPY ligand, anti 6His-Tb); format: binding; settings: for IC50: read-out: IC50; for inhibition at 1 µM: read-out: Percent Inhibition
Chain of hNAMPT protein (P43490 whole entry): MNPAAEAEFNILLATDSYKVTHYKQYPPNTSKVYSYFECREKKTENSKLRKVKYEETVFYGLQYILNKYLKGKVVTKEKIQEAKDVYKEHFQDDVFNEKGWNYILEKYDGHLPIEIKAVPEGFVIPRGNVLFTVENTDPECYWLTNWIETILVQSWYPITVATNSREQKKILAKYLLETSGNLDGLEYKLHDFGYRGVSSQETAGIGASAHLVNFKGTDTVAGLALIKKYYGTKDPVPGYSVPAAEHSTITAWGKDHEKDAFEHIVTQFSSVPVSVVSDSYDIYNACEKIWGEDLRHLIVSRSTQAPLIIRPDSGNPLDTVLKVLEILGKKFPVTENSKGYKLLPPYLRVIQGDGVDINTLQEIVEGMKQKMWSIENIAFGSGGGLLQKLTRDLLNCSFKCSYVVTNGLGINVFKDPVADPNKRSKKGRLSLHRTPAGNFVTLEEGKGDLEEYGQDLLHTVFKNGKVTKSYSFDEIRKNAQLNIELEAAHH
Outline: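 TR-FRET binding assay in which His-tagged human NAMPT with anti-6His-Tb is displaced by compound from a BodiPY ligand, incubated 1 h at rt in the dark. Excitation was at 320 nm, with the 520/486 nm emission ratio read. IC50 was fitted from inhibition relative to DMSO controls.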

[1] = NAMPT inhibition at compound concentration 1 μM
[2] = NAMPT inhibition, IC50 range class

Row | SMILES | inhibition at 1 µM (PC3 cells) | IC50 (hNAMPT protein; NAMPT IC50 range class) | inhibition at 1 µM (hNAMPT protein; compound concentration 1 μM) | inhibition at 1.667 µM (PC3 cells) | inhibition at 1 µM (hNAMPT protein; [1]) | IC50 (hNAMPT protein; [2]) | inhibition at 1 µM (hNAMPT protein) | inhibition at 1.852 µM (PC3 cells; compound concentration 1.852 μM)
1 | O=C(c1ccc2nc(-c3ccc(F)cc3)c(-c3ccc(F)cc3)nc2c1)N1CCn2nncc2C1 [Compound I-28, [2,3-bis(4-fluorophenyl)quinoxalin-6-yl](6,7-dihydro[1,2,3]triazolo[1,5-a]pyrazin-5(4H)-yl)methanone] | 94% | 2000 to 10000 nM | 19% | – | – | – | – | –
2 | O=C(NCCCc1ncc[nH]1)c1ccc2nc(-c3ccc(F)cc3)c(-c3ccc(Cl)cc3F)nc2c1 [Compound I-455, 3-(4-chloro-2-fluorophenyl)-2-(4-fluorophenyl)-N-[3-(1H-imidazol-2-yl)propyl]quinoxaline-6-carboxamide] | – | – | – | 3% | 80% | 100 to 500 nM | – | –
3 | O=C(NCCCc1ncc[nH]1)c1ccc2nc(N3CCC4(CC3)COC4)c(-c3ccc(F)cc3)nc2c1 [Compound I-277, 3-(4-Fluorophenyl)-N-[3-(1H-imidazol-2-yl)propyl]-2-(2-oxa-7-azaspiro[3.5]non-7-yl)quinoxaline-6-carboxamide] | – | < 100 nM | – | 2% | – | – | 99% | –
4 | N#Cc1ccc(F)c(-c2nc3cc(C(=O)NCCCc4ncc[nH]4)ccc3nc2-c2ccc(F)cc2)c1 [Compound I-501, 3-(5-cyano-2-fluorophenyl)-2-(4-fluorophenyl)-N-[3-(1H-imidazol-2-yl)propyl]quinoxaline-6-carboxamide] | – | – | – | 2% | 99% | < 100 nM | – | –
5 | CC(C)COc1nc2ccc(C(=O)NCCCc3ncc[nH]3)cc2nc1-c1ccc(F)cc1 [Compound I-478, 3-(4-fluorophenyl)-N-[3-(1H-imidazol-2-yl)propyl]-2-isobutoxyquinoxaline-6-carboxamide] | – | – | – | 2% | 96% | < 100 nM | – | –
6 | O=C(NCCCn1ccnc1)c1ccc2nc(-c3ccccc3)c(-c3ccc4c(c3)CCO4)nc2c1 [Compound I-252, 3-(2,3-dihydro-1-benzofuran-5-yl)-N-[3-(1H-imidazol-1-yl)propyl]-2-phenylquinoxaline-6-carboxamide] | 2% | 500 to 1000 nM | 53% | – | – | – | – | –
7 | O=C(NCCCc1nnc[nH]1)c1ccc2nc(-c3ccc(F)cc3)c(-c3cc(Cl)ccc3F)nc2c1 [Compound I-520, 3-(5-chloro-2-fluorophenyl)-2-(4-fluorophenyl)-N-[3-(4H-1,2,4-triazol-3-yl)propyl]quinoxaline-6-carboxamide] | – | – | – | 1% | 89% | < 100 nM | – | –
8 | O=C(NCCCn1ccnc1)c1ccc2nc(-c3cccnc3)c(-c3ccccc3)nc2c1 [Compound I-201, N-[3-(1H-imidazol-1-yl)propyl]-3-phenyl-2-(pyridin-3-yl)quinoxaline-6-carboxamide] | -7% | 500 to 1000 nM | 62% | – | – | – | – | –
9 | COc1cc(-c2nc3cc(C(=O)NCc4ccc5nccn5c4)ccc3nc2OC(C)C)c(F)cn1 [Compound I-317, 3-(5-fluoro-2-methoxypyridin-4-yl)-N-(imidazo[1,2-a]pyridin-6-ylmethyl)-2-isopropoxyquinoxaline-6-carboxamide] | – | 100 to 500 nM | 66% | 1% | – | – | – | –
10 | CC(=O)N1CCN(c2nc3cc(C(=O)NCCCn4ccnc4)ccc3nc2-c2ccccc2)CC1 [Compound I-168, 3-(4-Acetylpiperazin-1-yl)-N-[3-(1H-imidazol-1-yl)propyl]-2-phenylquinoxaline-6-carboxamide] | 1% | 100 to 500 nM | 84% | – | – | – | – | –
11 | CCOc1cccc(-c2nc3ccc(C(=O)NCCCn4ccnc4)cc3nc2-c2ccccc2)c1 [Compound I-228, 2-(3-ethoxyphenyl)-N-[3-(1H-imidazol-1-yl)propyl]-3-phenylquinoxaline-6-carboxamide] | -8% | 100 to 500 nM | 80% | – | – | – | – | –
12 | Cn1cc(CCOc2nc3ccc(C(=O)NCCCc4ncc[nH]4)cc3nc2-c2ccc(F)cc2)cn1 [Compound I-321, 3-(4-fluorophenyl)-N-[3-(1H-imidazol-2-yl)propyl]-2-[2-(1-methyl-1H-pyrazol-4-yl)ethoxy]quinoxaline-6-carboxamide] | – | < 100 nM | > 99% | 2% | – | – | – | –
13 | O=C(NCCCn1ccnc1)c1ccc2nc(-c3ccccc3)c(N3CCS(=O)(=O)CC3)nc2c1 [Compound I-14, 3-(1,1-dioxidothiomorpholin-4-yl)-N-[3-(1H-imidazol-1-yl)propyl]-2-phenylquinoxaline-6-carboxamide] | -3% | 2000 to 10000 nM | 17% | – | – | – | – | –
14 | O=C(NCCc1ncc[nH]1)c1ccc2nc(Cl)c(-c3ccc(F)cc3)nc2c1 [Compound I-102, 2-chloro-3-(4-fluorophenyl)-N-[2-(1H-imidazol-2-yl)ethyl]quinoxaline-6-carboxamide] | – | 500 to 1000 nM | 38% | > 99% | – | – | – | –
15 | O=C(NCCCc1ncc[nH]1)c1ccc2nc(OCc3ccsc3)c(-c3ccc(F)cc3)nc2c1 [Compound I-326, 3-(4-fluorophenyl)-N-[3-(1H-imidazol-2-yl)propyl]-2-(3-thienylmethoxy)quinoxaline-6-carboxamide] | – | < 100 nM | 92% | 3% | – | – | – | –
16 | O=C(NCc1ccc2nccn2c1)c1ccc2nc(N3CCCCC3)c(-c3ccc(F)cc3)nc2c1 [Compound I-170] | – | < 100 nM | 98% | 2% | – | – | – | –
17 | COc1cccc(-c2nc3cc(C(=O)NCCCc4ncc[nH]4)ccc3nc2N2CCC(O)CC2)c1 [Compound I-12, 2-(4-hydroxypiperidin-1-yl)-N-[3-(1H-imidazol-2-yl)propyl]-3-(3-methoxyphenyl)quinoxaline-6-carboxamide] | – | < 100 nM | > 99% | 2% | – | – | – | –
18 | CC(C)(C)OC(=O)NCC1CCN(C2CCN(c3nc4ccc(C(=O)NCCCn5ccnc5)cc4nc3-c3ccccc3)CC2)CC1 [Compound I-27, tert-butyl{[1′-(6-{[3-(1H-imidazol-1-yl)propyl]carbamoyl}-3-phenylquinoxalin-2-yl)-1,4′-bipiperidin-4-yl]methyl}carbamate] | -1% | < 100 nM | 102% | – | – | – | – | –
19 | O=C(NCc1ccc2nccn2c1)c1ccc2nc(N3CCC(N4CCOCC4)CC3)c(-c3ccc(F)cc3)nc2c1 [Compound I-64, 3-(4-fluorophenyl)-N-(imidazo[1,2-a]pyridin-6-ylmethyl)-2-[4-(morpholin-4-yl)piperidin-1-yl]quinoxaline-6-carboxamide] | – | < 100 nM | 98% | – | – | – | – | 2%
20 | COc1cc(-c2nc3cc(C(=O)NCCCc4nnc[nH]4)ccc3nc2-c2ccc(F)cc2)c(F)cn1 [Compound I-515, 3-(5-fluoro-2-methoxypyridin-4-yl)-2-(4-fluorophenyl)-N-[3-(4H-1,2,4-triazol-3-yl)propyl]quinoxaline-6-carboxamide] | – | – | – | 1% | 75% | 100 to 500 nM | – | –
21 | CS(=O)(=O)C1CCN(c2nc3cc(C(=O)NCCCn4ccnc4)ccc3nc2-c2ccccc2)C1 (stereo not drawn) [Compound I-101, N-[3-(1H-imidazol-1-yl)propyl]-3-[3-(methylsulfonyl)pyrrolidin-1-yl]-2-phenylquinoxaline-6-carboxamide] | 7% | 2000 to 10000 nM | 16% | – | – | – | – | –
22 | CC(C)Oc1nc2ccc(C(=O)NCCCc3ncc[nH]3)cc2nc1-c1cc(C#N)ccc1F [Compound I-414, 3-(5-cyano-2-fluorophenyl)-N-[3-(1H-imidazol-2-yl)propyl]-2-isopropoxyquinoxaline-6-carboxamide] | – | – | – | 1% | 95% | < 100 nM | – | –
23 | COc1nn(C)c2c1CN(C(=O)c1ccc3nc(-c4ccc(F)cc4)c(-c4ccc(F)cc4)nc3c1)CC2 [Compound I-304, [2,3-bis(4-fluorophenyl)quinoxalin-6-yl](3-methoxy-1-methyl-1,4,6,7-tetrahydro-5H-pyrazolo[4,3-c]pyridin-5-yl)methanone] | 92% | 2000 to 10000 nM | 17% | – | – | – | – | –
24 | O=C(NCCCn1ccnc1)c1ccc2nc(-c3ccccc3)c(N3CCC(O)C3)nc2c1 (stereo not drawn) [Compound I-153, 3-(3-hydroxypyrrolidin-1-yl)-N-[3-(1H-imidazol-1-yl)propyl]-2-phenylquinoxaline-6-carboxamide] | 14% | 2000 to 10000 nM | 22% | – | – | – | – | –
25 | N#CC1CCN(c2nc3ccc(C(=O)NCCCn4ccnc4)cc3nc2-c2ccccc2)C1 (stereo not drawn) [Compound I-106, 2-(3-cyanopyrrolidin-1-yl)-N-[3-(1H-imidazol-1-yl)propyl]-3-phenylquinoxaline-6-carboxamide] | -5% | 500 to 1000 nM | 60% | – | – | – | – | –
26 | N#Cc1ccc(-c2nc3cc(C(=O)NCCCc4ncc[nH]4)ccc3nc2-c2ccc(F)cc2)s1 [Compound I-363, 3-(5-cyano-2-thienyl)-2-(4-fluorophenyl)-N-[3-(1H-imidazol-2-yl)propyl]quinoxaline-6-carboxamide] | – | 100 to 500 nM | 78% | 3% | – | – | – | –
27 | O=C(NCCCn1ccnc1)c1ccc2nc(N3CCC4(CC3)OCCO4)c(-c3ccccc3)nc2c1 [Compound I-275] | 0% | < 100 nM | 99% | – | – | – | – | –

From patent publication US10144742B2 (Millennium Pharmaceuticals, Inc., priority 2014, dated 2018)
